Assays:
[1] = system: MM.1S; assay: CCK-8 proliferation, MM.1S; type: cell-based; details: Homo sapiens, MM1.S; Table B10, compounds designed based on the IRAK4 inhibitors; MM.1S cells; read-out: Inhibitory activity (IC50, nM) on tumor cell proliferation, MM.1S
Summary of the method: (§1)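 Tumor cells were cultured at 37°C with 5% CO2, seeded, and after 24h treated with compounds at 10 concentrations starting at 10µM (5-fold serial dilutions).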

[2] = target: T1, IRAK4 (Homo sapiens, UniProt Q9NWZ3); assay: Western blot degradation of IRAK4 (hPBMC); type: cell-based; details: Table D1
T1 construct: evaluate the effects of the compounds of the present disclosure on the expression of target proteins in cells; endogenous in cells; host or cells: hPBMC
T1 sequence (Q9NWZ3 1-460): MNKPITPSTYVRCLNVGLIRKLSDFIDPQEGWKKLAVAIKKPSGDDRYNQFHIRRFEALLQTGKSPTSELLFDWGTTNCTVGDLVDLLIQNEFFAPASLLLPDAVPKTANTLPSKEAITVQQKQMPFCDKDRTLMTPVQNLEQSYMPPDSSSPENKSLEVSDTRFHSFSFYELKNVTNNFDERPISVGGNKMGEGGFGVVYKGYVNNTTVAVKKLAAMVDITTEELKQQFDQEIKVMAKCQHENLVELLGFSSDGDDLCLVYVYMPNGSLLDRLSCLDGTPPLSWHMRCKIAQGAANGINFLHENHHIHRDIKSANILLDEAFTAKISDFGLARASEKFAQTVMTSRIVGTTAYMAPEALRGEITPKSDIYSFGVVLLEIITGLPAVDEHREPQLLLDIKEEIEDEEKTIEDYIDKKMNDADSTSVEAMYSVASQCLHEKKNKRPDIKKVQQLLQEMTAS
Summary of the method: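 After compound exposure, cells were harvested and lysates run on SDS-PAGE, transferred to nitrocellulose and probed with antibodies. Remaining target (%) was computed from band grayscale relative to an internal control protein and normalised; degradation (%) was 100% minus that.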

[3] = system: SR; assay: CCK-8 proliferation, SR; type: cell-based, Human; details: Homo sapiens; Table B10, compounds designed based on the IRAK4 inhibitors; SR cells; read-out: Inhibitory activity (IC50, nM) on tumor cell proliferation, SR
Summary of the method: as §1

[4] = target: T2, human Cereblon WT GST-tagged protein (Homo sapiens, UniProt Q96SW2); assay: CRBN binding, HTRF (CEREBLON BINDING kit); details: Table II-2, CRBN binding screening, HTRF; for inhibition at 0.5 µM: read-out: Inhibition rate (%) at 0.5µM; for inhibition at 2 µM: read-out: Inhibition rate (%) at 2 µM
T2 construct: purchased CISBIO 64BDCRBNPEH
Summary of the method: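 After 3 h at room temperature, emission at 665 and 620 nm was measured in a homogeneous time-resolved fluorescence format. Compounds competed with a Thalidomide-Re probe for GST-tagged wild-type human CRBN, which was labelled with a Eu anti-GST antibody.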

[5] = target: T3, ALK (Homo sapiens, UniProt Q96SW2+Q9HC35+Q9UM73); assay: Western blot degradation of ALK (H2228 Cell); type: cell-based; details: Table D5
T3 construct: evaluate the effects of the compounds of the present disclosure on the expression of target proteins in cells; endogenous in cells; host or cells: H2228
Procedure: Conventional Western blot assay was performed to evaluate the effects of the compounds of the present disclosure on the expression of target proteins in cells.
(1) Cell Seeding and Protein Harvesting: The selected cells were processed according to the cell seeding procedure and protein harvesting procedure in Table III-2. Table III-2 Cell Seeding and Protein Harvesting Procedures
(2) To the collected supernatant, 5X SDS sample loading buffer was added, followed by denaturation at 95°C for 5 minutes. The denatured samples were then separated by SDS-PAGE electrophoresis on a polyacrylamide gel. Proteins were transferred to a nitrocellulose membrane (0.45 µm NC membrane), blocked with blocking buffer at room temperature for 1 hour, and subjected to antibody incubation and development procedures according to the antibody manufacturer's instructions (Cell Signaling Technology).
Half-Maximal Degradation Concentration value (the drug concentration required for degrading proteins by 50%, abbreviated as DC50) reads method: comparing the grayscale values of Western blot bands from drug-treated samples with those from blank DMSO-treated controls, and identifying the drug concentration range at which the grayscale value is half that of the DMSO-treated control bands.
DC50 values can be calculated using ImageJ software to measure grayscale values of Western blot bands from drug-treated samples. The concentration-response curve is fitted to estimate the drug concentration corresponding to half the grayscale value.
Target protein remaining (%) refers to the percentage of target protein remaining in hPBMC cells after treatment with protein degrader compounds.
Calculation method for target protein remaining (%): Use ImageJ software to measure grayscale values of Western blot bands from drug (protein degrader)-treated samples. The grayscale value of drug-treated bands is divided by that of internal control protein bands, and the resulting quotient is normalized to obtain the relative percentage of remaining target protein after protein degrader treatment.
Target protein degradation rate (%) = 100% - target protein remaining (%).

T2 sequence (Q96SW2 whole entry): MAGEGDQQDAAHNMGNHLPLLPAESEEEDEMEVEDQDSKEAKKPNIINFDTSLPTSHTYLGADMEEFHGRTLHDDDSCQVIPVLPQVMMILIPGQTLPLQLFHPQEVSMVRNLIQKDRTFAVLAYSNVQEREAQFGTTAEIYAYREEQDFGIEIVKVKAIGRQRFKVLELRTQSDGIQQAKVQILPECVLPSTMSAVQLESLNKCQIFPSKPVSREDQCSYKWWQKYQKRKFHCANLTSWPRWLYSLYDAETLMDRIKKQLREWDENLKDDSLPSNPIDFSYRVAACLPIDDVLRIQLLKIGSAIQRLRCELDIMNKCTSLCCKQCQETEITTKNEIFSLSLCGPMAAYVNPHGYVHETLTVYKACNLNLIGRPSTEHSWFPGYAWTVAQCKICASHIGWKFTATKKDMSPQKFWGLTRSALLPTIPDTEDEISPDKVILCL
T3 sequence (Q9HC35+Q9UM73 fused): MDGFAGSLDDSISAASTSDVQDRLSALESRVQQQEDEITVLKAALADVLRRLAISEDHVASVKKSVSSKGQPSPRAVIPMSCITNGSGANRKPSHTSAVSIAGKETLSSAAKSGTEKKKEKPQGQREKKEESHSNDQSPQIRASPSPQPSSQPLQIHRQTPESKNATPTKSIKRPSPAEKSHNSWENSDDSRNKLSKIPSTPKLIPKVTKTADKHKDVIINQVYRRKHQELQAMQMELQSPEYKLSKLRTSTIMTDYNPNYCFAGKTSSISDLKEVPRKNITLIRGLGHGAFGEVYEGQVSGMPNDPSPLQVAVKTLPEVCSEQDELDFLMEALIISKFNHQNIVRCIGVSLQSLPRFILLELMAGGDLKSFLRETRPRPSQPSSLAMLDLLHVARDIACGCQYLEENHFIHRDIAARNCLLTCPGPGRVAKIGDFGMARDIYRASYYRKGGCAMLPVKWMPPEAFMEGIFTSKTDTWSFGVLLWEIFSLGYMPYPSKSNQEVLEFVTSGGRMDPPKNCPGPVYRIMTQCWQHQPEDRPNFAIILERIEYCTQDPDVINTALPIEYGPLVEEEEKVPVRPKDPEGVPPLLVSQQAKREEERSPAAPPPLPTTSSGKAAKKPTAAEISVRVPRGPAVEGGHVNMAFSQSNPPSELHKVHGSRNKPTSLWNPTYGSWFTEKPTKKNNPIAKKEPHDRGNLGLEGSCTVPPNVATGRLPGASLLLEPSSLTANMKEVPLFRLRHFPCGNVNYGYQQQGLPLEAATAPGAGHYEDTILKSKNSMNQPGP
T3 sequence (Q96SW2 whole entry): as the sequence (Q96SW2 whole entry) above
T3 sequence (Q16531 whole entry partner): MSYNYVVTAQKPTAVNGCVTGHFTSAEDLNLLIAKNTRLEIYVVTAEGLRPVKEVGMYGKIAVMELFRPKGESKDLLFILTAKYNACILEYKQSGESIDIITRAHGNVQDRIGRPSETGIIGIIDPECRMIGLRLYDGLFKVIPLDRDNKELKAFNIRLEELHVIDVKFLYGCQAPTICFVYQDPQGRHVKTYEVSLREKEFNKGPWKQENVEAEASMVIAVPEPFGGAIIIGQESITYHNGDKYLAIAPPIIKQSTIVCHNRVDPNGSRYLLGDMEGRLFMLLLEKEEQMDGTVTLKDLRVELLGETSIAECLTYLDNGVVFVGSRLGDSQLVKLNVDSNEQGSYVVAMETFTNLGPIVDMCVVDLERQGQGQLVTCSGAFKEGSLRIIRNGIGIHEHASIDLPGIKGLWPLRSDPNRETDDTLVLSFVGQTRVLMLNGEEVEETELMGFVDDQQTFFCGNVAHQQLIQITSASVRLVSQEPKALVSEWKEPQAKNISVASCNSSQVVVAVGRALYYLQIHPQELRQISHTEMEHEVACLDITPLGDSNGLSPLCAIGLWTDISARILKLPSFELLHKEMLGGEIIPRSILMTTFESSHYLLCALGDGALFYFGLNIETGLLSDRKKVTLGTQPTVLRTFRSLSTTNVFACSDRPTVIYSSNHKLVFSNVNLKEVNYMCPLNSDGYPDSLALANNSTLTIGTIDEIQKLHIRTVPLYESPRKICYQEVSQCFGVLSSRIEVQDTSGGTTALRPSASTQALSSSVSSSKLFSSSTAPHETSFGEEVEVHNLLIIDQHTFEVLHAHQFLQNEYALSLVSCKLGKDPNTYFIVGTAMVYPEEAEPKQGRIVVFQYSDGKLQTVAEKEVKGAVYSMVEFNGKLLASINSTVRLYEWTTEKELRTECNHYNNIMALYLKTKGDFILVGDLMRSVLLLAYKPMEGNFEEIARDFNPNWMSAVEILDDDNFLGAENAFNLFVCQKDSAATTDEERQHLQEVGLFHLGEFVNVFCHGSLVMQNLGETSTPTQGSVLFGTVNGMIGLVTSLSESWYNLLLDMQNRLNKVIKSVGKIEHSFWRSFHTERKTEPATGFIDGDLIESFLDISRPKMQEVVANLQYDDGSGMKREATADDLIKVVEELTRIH

Compound	IC50 [1]	Degradation of substrate protein IRAK4 (substrate protein remaining %) [2]	Degradation of substrate protein ALK (substrate protein remaining %) [5]	other results
O=C1CCN(c2ccc(CN3CCC(n4cc(NC(=O)c5coc(-c6ccnc(NCC7CC7)c6)n5)c(C(F)F)n4)CC3)cc2)C(=O)N1 [GT-04956, 2-(2-((cyclopropylmethyl)amino)pyridin-4-yl)-N-(3-(difluoromethyl)-1-(1-(4-(2,4-dioxotetrahydropyrimidin-1(2H)-yl)benzyl)piperidin-4-yl)-1H-pyrazol-4-yl)oxazole-4-carboxamide]	100 to 500 nM	A (A is defined as 0% ≤ substrate protein remaining % ≤ 80%)	–	–
O=C1CCN(c2ccc(CN3CCC(n4cc(NC(=O)c5coc(-c6ccnc(NCC7CC7)c6)n5)c(C(F)F)n4)CC3)nc2)C(=O)N1 [GT-04958, 2-(2-((cyclopropylmethyl)amino)pyridin-4-yl)-N-(3-(difluoromethyl)-1-(1-((5-(2,4-dioxotetrahydropyrimidin-1(2H)-yl)pyridin-2-yl)methyl)piperidin-4-yl)-1H-pyrazol-4-yl)oxazole-4-carboxamide]	100 to 500 nM	A (A is defined as 0% ≤ substrate protein remaining % ≤ 80%)	–	–
O=C1CCC(Nc2cccc(CN3CCN(Cc4ccc5c(c4)nc(NC(=O)c4cccc(C(F)(F)F)c4)n5C4CCC(CO)CC4)CC3)c2)C(=O)N1 (stereo not shown) [GT-04976, N-(5-((4-(3-((2,6-dioxopiperidin-3-yl)amino)benzyl)piperazin-1-yl)methyl)-1-((1s,4s)-4-(hydroxymethyl)cyclohexyl) -1H-benzo[d]imidazol-2-yl)-3-(trifluoromethyl)benzamide]	100 to 500 nM	A (A is defined as 0% ≤ substrate protein remaining % ≤ 80%)	–	IC50 [3]: 100 to 500 nM
O=C1CCN(c2cccc(CN3CCN(Cc4ccc5c(c4)nc(NC(=O)c4cccc(C(F)(F)F)c4)n5[C@H]4CC[C@@H](CO)CC4)CC3)c2)C(=O)N1 [GT-04977, N-(5-((4-(3-(2,4-dioxotetrahydropyrimidin-1(2H)-yl)benzyl)piperazin-1-yl)methyl)-1-((1s,4s)-4-(hydroxymethyl)cyclohexyl) -1H-benzo[d]imidazol-2-yl)-3-(trifluoromethyl)benzamide]	100 to 500 nM	A (A is defined as 0% ≤ substrate protein remaining % ≤ 80%)	–	IC50 [3]: 100 to 500 nM
CC(C)(O)c1cc2nc(C3CCN(Cc4cc(N5CCC(=O)NC5=O)ncc4F)CC3)oc2cc1NC(=O)c1cccc(C(F)(F)F)n1 [GT-07626, N-(2-(1-((2-(2,4-dioxotetrahydropyrimidin-1(2H)-yl)-5-fluoropyridin-4-yl)methyl)piperidin-4-yl)-5-(2-hydroxypropan-2-yl)benzo[d]oxazol-6-yl)-6-(trifluoromethyl)picolinamide]	–	A (A is defined as 0% ≤ substrate protein remaining % ≤ 80%)	–	inhibition at 0.5 µM [4]: 20 to 30%; inhibition at 2 µM [4]: 60 to 80%
CC(C)(O)c1cc2nc(C3CCN(Cc4cncc(N5CCC(=O)NC5=O)c4)CC3)oc2cc1NC(=O)c1cccc(C(F)(F)F)n1 [GT-07628, N-(2-(1-((5-(2,4-dioxotetrahydropyrimidin-1(2H)-yl)pyridin-3-yl)methyl)piperidin-4-yl)-5-(2-hydroxypropan-2-yl)benzo[d]oxazol-6-yl)-6-(trifluoromethyl)picolinamide]	–	A (A is defined as 0% ≤ substrate protein remaining % ≤ 80%)	–	inhibition at 0.5 µM [4]: 20 to 30%; inhibition at 2 µM [4]: 60 to 80%
COc1cc(N2CCN(Cc3cc(N4CCC(=O)NC4=O)cnc3F)CC2)ccc1Nc1ncc(Cl)c(Nc2ccccc2P(C)(C)=O)n1 [GT-07748, 1-(5-((4-(4-((5-chloro-4-((2-(dimethylphosphoryl)phenyl)amino)pyrimidin-2-yl)amino)-3-methoxyphenyl)piperazin-1-yl)methyl)-6-fluoropyridin-3-yl)dihydropyrimidine-2,4(1H,3H)-dione]	–	–	A (A is defined as 0% ≤ substrate protein remaining % ≤ 80%)	–
COc1cc(N2CCN(Cc3cnc(N4CCC(=O)NC4=O)cn3)CC2)ccc1Nc1ncc(Cl)c(Nc2ccccc2P(C)(C)=O)n1 [GT-07749, 1-(5-((4-(4-((5-chloro-4-((2-(dimethylphosphoryl)phenyl)amino)pyrimidin-2-yl)amino)-3-methoxyphenyl)piperazin-1-yl)methyl)pyrazin-2-yl)dihydropyrimidine-2,4(1H,3H)-dione]	–	–	A (A is defined as 0% ≤ substrate protein remaining % ≤ 80%)	–
COc1cc(N2CCC(N(C)Cc3cc(N4CCC(=O)NC4=O)cnc3F)CC2)ccc1Nc1ncc(Cl)c(Nc2ccccc2P(C)(C)=O)n1 [GT-07750, 1-(5-(((1-(4-((5-chloro-4-((2-(dimethylphosphoryl)phenyl)amino)pyrimidin-2-yl)amino)-3-methoxyphenyl)piperidin-4-yl)(methyl)amino)methyl)-6-fluoropyridin-3-yl)dihydropyrimidine-2,4(1H,3H)-dione]	–	–	A (A is defined as 0% ≤ substrate protein remaining % ≤ 80%)	–
COc1cc(N2CCC(N(C)Cc3cnc(N4CCC(=O)NC4=O)cn3)CC2)ccc1Nc1ncc(Cl)c(Nc2ccccc2P(C)(C)=O)n1 [GT-07751, 1-(5-(((1-(4-((5-chloro-4-((2-(dimethylphosphoryl)phenyl)amino)pyrimidin-2-yl)amino)-3-methoxyphenyl)piperidin-4-yl)(methyl)amino)methyl)pyrazin-2-yl)dihydropyrimidine-2,4(1H,3H)-dione]	–	–	A (A is defined as 0% ≤ substrate protein remaining % ≤ 80%)	–
CCc1cc2c(cc1N1CCC(N3CCN(Cc4cc(N5CCC(=O)NC5=O)cnc4F)CC3)CC1)C(C)(C)c1[nH]c3cc(C#N)ccc3c1C2=O [GT-07755, 8-(4-(4-((5-(2,4-dioxotetrahydropyrimidin-1(2H)-yl)-2-fluoropyridin-3-yl)methyl)piperazin-1-yl)piperidin-1-yl)-9-ethyl-6,6-dimethyl-11-oxo-6,11-dihydro-5H-benzo[b]carbazole-3-carbonitrile]	–	–	A (A is defined as 0% ≤ substrate protein remaining % ≤ 80%)	–
CCc1cc2c(cc1N1CCC(N3CCN(Cc4cnc(N5CCC(=O)NC5=O)cn4)CC3)CC1)C(C)(C)c1[nH]c3cc(C#N)ccc3c1C2=O [GT-07756, 8-(4-(4-((5-(2,4-dioxotetrahydropyrimidin-1(2H)-yl)pyrazin-2-yl)methyl)piperazin-1-yl)piperidin-1-yl)-9-ethyl-6,6-dimethyl-11-oxo-6,11-dihydro-5H-benzo[b]carbazole-3-carbonitrile]	–	–	A (A is defined as 0% ≤ substrate protein remaining % ≤ 80%)	–
CC(C)(O)c1cc2nc(C3CCN(Cc4ccc(C5CCC(=O)NC5=O)cn4)CC3)oc2cc1NC(=O)c1cccc(C(F)(F)F)n1 (stereo not shown) [GT-07763, N-(2-(1-((5-(2,6-dioxopiperidin-3-yl)pyridin-2-yl)methyl)piperidin-4-yl)-5-(2-hydroxypropan-2-yl)benzo[d]oxazol-6-yl)-6-(trifluoromethyl)picolinamide]	–	A (A is defined as 0% ≤ substrate protein remaining % ≤ 80%)	–	inhibition at 0.5 µM [4]: 40 to 53%; inhibition at 2 µM [4]: 60 to 80%

From patent EP4678638A1, “NEW E3 UBIQUITIN LIGASE LIGAND, PROTEIN DEGRADATION AGENT AND USE THEREOF” (priority 2023, dated 2024)
